For assay [1], the system named is pseudotyped VSV G particles (VSVpp). Briefly: microbe, parasite or virus in culture. Format: cell-based, vesicular stomatitis virus.
The subject of assay [2] is pseudotyped HCV GT1b particles (HCVpp). In words: microbe, parasite or virus in culture. In kind it is cell-based, HCV GT1b Con1 strain.
Setting [3] is: Vesicular stomatitis virus, 72 h, read-out: VSVpp (EC50, μM).
Setting [4] is: Hepatitis C virus, GT1B, 72 h, read-out: HCVpp GT-1b (EC50, μM).

As usually defined, the EC50 is the concentration needed to bring the measured effect to its halfway point.

Read-outs that look alike come from different tables or passages of the source.

For `CS(=O)(=O)Nc1ccc(-c2c(Cl)cc(Nc3n[nH]c(N)n3)cc2Cl)cn1` [Compound 8, N-{5-[4-(5-Amino-1H-[1,2,4]triazol-3-ylamino)-2,6-dichloro-phenyl]-pyridin-2-yl}-methanesulfonamide], the EC50 in assay [1] (setting [3]) is no less than 10 µM; in assay [2] (setting [4]), 0.386 µM.

As for `Nc1nc(Nc2cc(Cl)c(-c3ccc(=O)[nH]c3)c(Cl)c2)n[nH]1` [Compound 3, 5-[4-(5-Amino-1H-[1,2,4]triazol-3-ylamino)-2,6-dichloro-phenyl]-1H-pyridin-2-one], the EC50 in assay [1] (setting [3]) was no less than 10 µM; in assay [2] (setting [4]) it was 0.364 µM.

In the case of “N3-(3-Chloro-4-(1-methyl-1H-tetrazol-5-yl)phenyl)-1H-1,2,4-triazole-3,5-diamine [Compound 15]”, in assay [2] (read-out: HCVpp GT-1b (EC50)), the half-maximal effective concentration (EC50) was 6.72 µM. With “N3-(2-chloro-4′-(4-methylpiperazin-1-yl)-6-(trifluoromethyl)biphenyl-4-yl)-1H-1,2,4-triazole-3,5-diamine [Compound 27]”, the EC50 in assay [2] (read-out: HCVpp GT-1b (EC50)) came out at 0.301 µM. With `NCC1(CO)CN(c2c(Cl)cc(Nc3nc(N)n[nH]3)cc2Cl)C1` [Compound 13, {3-Aminomethyl-1-[4-(5-amino-2H-[1,2,4]triazol-3-ylamino)-2,6-dichlorophenyl]-azetidin-3-yl}-methanol], the half-maximal effective concentration (EC50) in assay [1] (setting [3]) was no less than 10 µM; in assay [2] (setting [4]), 10 µM. On to `CS(=O)(=O)c1ccc(-c2c(Cl)cc(Nc3nc(N)n[nH]3)cc2Cl)cn1` [Compound 11, N^5-(3,5-Dichloro-4-(6-methanesulfonyl-pyridin-3-yl)-phenyl)-1H-[1,2,4]-triazole-3,5-diamine], for which the results for the concentration for a half-maximal effect (EC50) in assay [1] (setting [3]) and in assay [2] (setting [4]) were 2.2 µM and 0.271 µM, respectively. On the same counts, the results for `Nc1nc(Nc2cc(Cl)c(-n3cccn3)c(Cl)c2)n[nH]1` [Compound 17, N3-(3,5-dichloro-4-(1H-pyrazol-1-yl)phenyl)-1H-1,2,4-triazole-3,5-diamine] are 34.6 µM and 4.14 µM. As to `Nc1ccc(-c2c(Cl)cc(Nc3n[nH]c(N)n3)cc2Cl)cn1` [Compound 4, N*3*-[4-(6-Amino-pyridin-3-yl)-3,5-dichloro-phenyl]-1H-[1,2,4]triazole-3,5-diamine], the EC50 in assay [1] (setting [3]) stood at 1.4 µM; in assay [2] (setting [4]), 0.173 µM. On the same counts, the results for `Nc1nc(Nc2cc(Cl)c(-c3cncnc3)c(Cl)c2)n[nH]1` [Compound 39, N-3-(3,5-Dichloro-4-pyrimidin-5-yl-phenyl)-1H-[1,2,4]triazole-3,5-diamine] are 5.1 µM and 0.536 µM.

Consider `Cn1cc(-c2c(Cl)cc(Nc3n[nH]c(N)n3)cc2Cl)c(C(F)(F)F)n1` [Compound 42, N-3-[3,5-Dichloro-4-(1-methyl-3-trifluoromethyl-1H-pyrazol-4-yl)-phenyl]-1H-[1,2,4]triazole-3,5-diamine], for which the EC50 in assay [1] (setting [3]) was determined as 2.4 µM; in assay [2] (setting [4]), 0.0527 µM. For `Nc1nc(Nc2cc(Cl)c(-c3ccncc3)c(Cl)c2)n[nH]1` [Compound 35, N-3-(3,5-Dichloro-4-(pyridin-4-yl)phenyl)-1H-1,2,4-triazole-3,5-diamine], in that order: 2.5 µM and 0.338 µM. Turning to `Nc1nc(Nc2cc(Cl)c(-c3ccc(C(F)(F)F)nc3)c(Cl)c2)n[nH]1` [Compound 41, N-3-[3,5-Dichloro-4-(6-trifluoromethyl-pyridin-3-yl)-phenyl]-1H-[1,2,4]triazole-3,5-diamine], the EC50 is 32.6 µM in assay [1] (setting [3]) and 0.703 µM in assay [2] (setting [4]).

For the compound `CC(C)(C)OC(=O)N1CC=C(c2c(Cl)cc(Nc3n[nH]c(N)n3)cc2Cl)CC1` [Compound 18, tert-Butyl 4-(4-(5-amino-1H-1,2,4-triazol-3-ylamino)-2,6-dichlorophenyl)-5,6-dihydropyridine-1(2H)-carboxylate], the concentration giving a half-maximal response (EC50) is no less than 10 µM in assay [1] (setting [3]) and 0.088 µM in assay [2] (setting [4]). Take `Nc1nc(Nc2ccc(-n3ccccc3=O)c(Cl)c2)n[nH]1` [Compound 29, 1-[4-(5-Amino-1H-[1,2,4]triazol-3-ylamino)-2-chloro-phenyl]-1H-pyridin-2-one]: the EC50 in assay [1] (setting [3]) stood at 8.1 µM; in assay [2] (setting [4]), 13.7 µM. In the case of `CC(=O)c1sccc1-c1c(Cl)cc(Nc2n[nH]c(N)n2)cc1Cl` [Compound 34, 1-{3-[4-(5-Amino-1H-[1,2,4]triazol-3-ylamino)-2,6-dichloro-phenyl]-thiophen-2-yl}-ethanone], the values for the EC50 in assay [1] (setting [3]) and in assay [2] (setting [4]) were 1.8 µM and 0.144 µM, respectively. Turning to `COc1cccc(-c2c(Cl)cc(Nc3n[nH]c(N)n3)cc2Cl)n1` [Compound 44, N-3-[3,5-Dichloro-4-(6-methoxy-pyridin-2-yl)-phenyl]-1H-[1,2,4]triazole-3,5-diamine], the results for the half-maximal effective concentration (EC50) in assay [1] (setting [3]) and in assay [2] (setting [4]) were 7.8 µM and 1.16 µM, respectively.

Regarding `CNC(=O)c1ccc(-c2c(Cl)cc(Nc3n[nH]c(N)n3)cc2C(F)(F)F)cn1` [Compound 32, 5-(4-(5-amino-1H-1,2,4-triazol-3-ylamino)-2-chloro-6-(trifluoromethyl)phenyl)-N-methylpicolinamide], the EC50 is 21.8 µM in assay [1] (setting [3]) and 0.169 µM in assay [2] (setting [4]). Regarding “N*3*-{3-Chloro-4-[6-(propane-2-sulfonyl)-pyridin-3-yl]-5-trifluoromethyl-phenyl}-1H-[1,2,4]triazole-3,5-diamine [Compound 23]”, the half-maximal effective concentration (EC50) turned out to be 7.5 µM in assay [1] (read-out: VSVpp (EC50)) and 0.179 µM in assay [2] (read-out: HCVpp GT-1b (EC50)). With `Nc1nc(Nc2ccc(-c3cccnn3)c(Cl)c2)n[nH]1` [Compound 14, N3-(3-chloro-4-(pyridazin-3-yl)phenyl)-1H-1,2,4-triazole-3,5-diamine], the concentration for a half-maximal effect (EC50) in assay [1] (setting [3]) stood at 15 µM; in assay [2] (setting [4]) it was 6.52 µM. On the same counts, the results for `Nc1nc(Nc2cc(Cl)c(-c3cncc(Cl)c3)c(Cl)c2)n[nH]1` [Compound 43, N-3-[3,5-Dichloro-4-(5-chloro-pyridin-3-yl)-phenyl]-1H-[1,2,4]triazole-3,5-diamine] are 5.3 µM and 0.771 µM.

For the compound `Nc1nc(Nc2ccc(-n3ccccc3=O)cc2)n[nH]1` [Compound 28, 1-[4-(5-Amino-1H-[1,2,4]triazol-3-ylamino)-phenyl]-1H-pyridin-2-one], the results for the EC50 in assay [1] (setting [3]) and in assay [2] (setting [4]) were no less than 100 µM and 100 µM, respectively. For `Nc1nc(Nc2cc(Cl)c(-c3cccnc3)c(Cl)c2)n[nH]1` [Compound 37, N-3-(3,5-Dichloro-4-pyridin-3-yl-phenyl)-1H-[1,2,4]triazole-3,5-diamine], the concentration giving a half-maximal response (EC50) in assay [1] (setting [3]) turned out to be 8.1 µM; in assay [2] (setting [4]), 0.413 µM. Turning to “N3-[3-Chloro-4-(1,2,3,6-tetrahydro-pyridin-4-yl)-5-trifluoromethyl-phenyl]-1H-[1,2,4]triazole-3,5-diamine hydrochloride [Compound 21]”, in assay [2] (read-out: HCVpp GT-1b (EC50)), the concentration giving a half-maximal response (EC50) was 0.568 µM.

Consider `COc1ccc(-c2c(Cl)cc(Nc3n[nH]c(N)n3)cc2Cl)cn1` [Compound 1, N*3*-[3,5-Dichloro-4-(6-methoxy-pyridin-3-yl)-phenyl]-1H-[1,2,4]triazole-3,5-diamine], for which the 50% effective concentration (EC50) in assay [1] (setting [3]) turned out to be 3.7 µM; in assay [2] (setting [4]), 0.767 µM. With “N3-(3-chloro-4-(1-methyl-1H-1,2,4-triazol-5-yl)phenyl)-1H-1,2,4-triazole-3,5 diamine [Compound 16]”, the EC50 in assay [2] (read-out: HCVpp GT-1b (EC50)) was determined as 34.8 µM. As for `Nc1nc(Nc2cc(Cl)c(-c3cc[nH]c(=O)c3)c(Cl)c2)n[nH]1` [Compound 7, 4-[4-(5-Amino-1H-[1,2,4]triazol-3-ylamino)-2,6-dichloro-phenyl]-1H-pyridin-2-one], the half-maximal effective concentration (EC50) in assay [1] (setting [3]) was no less than 10 µM; in assay [2] (setting [4]), 0.809 µM.

For “tert-Butyl 4-(4-(5-amino-1H-1,2,4-triazol-3-ylamino)-2-chloro-6-(trifluoromethyl)phenyl)-5,6-dihydropyridine-1(2H)-carboxylate [Compound 20]”, the results for the 50% effective concentration (EC50) in assay [1] (read-out: VSVpp (EC50)) and in assay [2] (read-out: HCVpp GT-1b (EC50)) were 13.6 µM and 0.073 µM, respectively. In the case of `CC(C)(NS(=O)(=O)c1ccc(-c2c(Cl)cc(Nc3n[nH]c(N)n3)cc2C(F)(F)F)cn1)C(F)(F)F` [Compound 25, 5-[4-(5-Amino-1H-[1,2,4]triazol-3-ylamino)-2-chloro-6-trifluoromethyl-phenyl]-pyridine-2-sulfonic acid (2,2,2-trifluoro-1,1-dimethyl-ethyl)-amide], the values for the concentration giving a half-maximal response (EC50) in assay [1] (setting [3]) and in assay [2] (setting [4]) were no less than 10 µM and 0.005 µM, respectively.

Take `CC(C)(C)OC(=O)N1CC2(C1)CN(c1c(Cl)cc(Nc3nc(N)n[nH]3)cc1Cl)C2` [Compound 12, 6-[4-(5-Amino-2H-[1,2,4]triazol-3-ylamino)-2,6-dichlorophenyl]-2,6-diaza-spiro[3.3]heptane-2-carboxylic acid tert-butyl ester]: the EC50 in assay [1] (setting [3]) is no less than 10 µM; in assay [2] (setting [4]), 0.216 µM.

Consider “5-[4-(5-Amino-1H-[1,2,4]triazol-3-ylamino)-2-chloro-6-trifluoromethyl-phenyl]-pyridine-2-sulfonic acid tert-butylamide [Compound 24]”, for which the EC50 was determined as 4.1 µM in assay [1] (read-out: VSVpp (EC50)) and 0.008 µM in assay [2] (read-out: HCVpp GT-1b (EC50)). As for `Nc1nc(Nc2cc(Cl)c(-c3ccnnc3)c(Cl)c2)n[nH]1` [Compound 33, N3-(3,5-dichloro-4-(pyridazin-4-yl)phenyl)-1H-1,2,4-triazole-3,5-diamine], the EC50 in assay [1] (setting [3]) turned out to be 10.6 µM; in assay [2] (setting [4]) it was 0.78 µM. On the same counts, the results for `CS(=O)(=O)c1cncc(-c2c(Cl)cc(Nc3n[nH]c(N)n3)cc2Cl)c1` [Compound 2, N*3*-[3,5-Dichloro-4-(5-methanesulfonyl-pyridin-3-yl)-phenyl]-1H-[1,2,4]triazole-3,5-diamine] are no less than 10 µM and 0.386 µM. For `Nc1n[nH]c(Nc2cc(F)c(-c3cccnc3)c(C(F)(F)F)c2)n1` [Compound 10, N^5-(3-Fluoro-4-(pyridin-3-yl)-5-trifluoromethylphenyl)-1H-[1,2,4]-triazole-3,5-diamine], the EC50 in assay [1] (setting [3]) stood at 34.2 µM; in assay [2] (setting [4]), 1.24 µM.

On to “N3-(3,5-dichloro-4-(1,2,3,6-tetrahydropyridin-4-yl)phenyl)-1H-1,2,4-triazole-3,5-diamine [Compound 19]”, for which the concentration giving a half-maximal response (EC50) in assay [2] (read-out: HCVpp GT-1b (EC50)) came out at 0.505 µM.

As to “N*3*-(3,5-Dichloro-4-[1,2,4]triazolo[4,3-a]pyridin-3-yl-phenyl)-1H-[1,2,4]triazole-3,5-diamine [Compound 22]”, in assay [2] (read-out: HCVpp GT-1b (EC50)), the EC50 worked out at 2.04 µM.

Source of the values: patent US9540345B2, “Antiviral compounds” (priority 2013, dated 2017).
